PubChem BioAssay (NCI)
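48-hour exposure; five concentrations; linearly interpolated endpoints. TGI is the concentration that stops growth completely.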

How the values were obtained:
Assay in all cases: NCI tumour cell line growth inhibition, 48 h
UACC-257 melanoma = system: UACC-257 melanoma
MOLT-4 leukemia = system: MOLT-4 leukemia
KM12 colon = system: KM12 colon
MALME-3M melanoma = system: MALME-3M melanoma
HOP-62 NSCLC = system: HOP-62 NSCLC
XF 498 CNS = system: XF 498 CNS
SN12C renal = system: SN12C renal
U251 CNS = system: U251 CNS
HCT-15 colon = system: HCT-15 colon
HCT-116 colon = system: HCT-116 colon
SF-295 CNS = system: SF-295 CNS
A498 renal = system: A498 renal
SF-268 CNS = system: SF-268 CNS
NCI-H522 lung = system: NCI-H522 lung
LOX IMVI melanoma = system: LOX IMVI melanoma
UACC-62 melanoma = system: UACC-62 melanoma
SK-MEL-5 melanoma = system: SK-MEL-5 melanoma
NCI/ADR-RES ovarian = system: NCI/ADR-RES ovarian
MCF7 breast = system: MCF7 breast
CCRF-CEM leukemia = system: CCRF-CEM leukemia
HCC-2998 colon = system: HCC-2998 colon
SW-620 colon = system: SW-620 colon
HT29 colon = system: HT29 colon
SNB-19 CNS = system: SNB-19 CNS
OVCAR-5 ovarian = system: OVCAR-5 ovarian
DMS 273 small cell lung = system: DMS 273 small cell lung
COLO 205 colon = system: COLO 205 colon
HL-60(TB) leukemia = system: HL-60(TB) leukemia
KM20L2 colon = system: KM20L2 colon
NCI-H23 lung = system: NCI-H23 lung
NCI-H226 lung = system: NCI-H226 lung
SNB-75 CNS = system: SNB-75 CNS
A549 NSCLC = system: A549 NSCLC
P388 leukemia = system: P388 leukemia
OVCAR-3 ovarian = system: OVCAR-3 ovarian
SK-MEL-28 melanoma = system: SK-MEL-28 melanoma
UO-31 renal = system: UO-31 renal
SF-539 CNS = system: SF-539 CNS
SK-MEL-2 melanoma = system: SK-MEL-2 melanoma
NCI-H460 lung = system: NCI-H460 lung
SNB-78 CNS = system: SNB-78 CNS
DMS 114 small cell lung = system: DMS 114 small cell lung
RXF 393 renal = system: RXF 393 renal
DLD-1 colon = system: DLD-1 colon
SN12K1 renal = system: SN12K1 renal
OVCAR-4 ovarian = system: OVCAR-4 ovarian
HOP-92 NSCLC = system: HOP-92 NSCLC
OVCAR-8 ovarian = system: OVCAR-8 ovarian
SK-OV-3 ovarian = system: SK-OV-3 ovarian
HOP-18 NSCLC = system: HOP-18 NSCLC
EKVX NSCLC = system: EKVX NSCLC
K-562 leukemia = system: K-562 leukemia
M19-MEL melanoma = system: M19-MEL melanoma
IGROV1 ovarian = system: IGROV1 ovarian
786-0 renal = system: 786-0 renal
RPMI-8226 leukemia = system: RPMI-8226 leukemia
SR leukemia = system: SR leukemia
LXFL 529 NSCLC = system: LXFL 529 NSCLC
TK-10 renal = system: TK-10 renal
CAKI-1 renal = system: CAKI-1 renal
M14 melanoma = system: M14 melanoma
ACHN renal = system: ACHN renal

Work on `O=C1NC(=O)C(CCO)(c2ccccc2)C(=O)N1` yielded a TGI (UACC-257 melanoma) greater than 100 µM, a TGI (MOLT-4 leukemia) greater than 100 µM and a TGI (KM12 colon) greater than 100 µM. For the same compound, the TGI (MALME-3M melanoma) was greater than 100 µM, the TGI (HOP-62 NSCLC) was greater than 100 µM and the TGI (XF 498 CNS) was greater than 100 µM. It also gave a TGI (SN12C renal) greater than 100 µM, a TGI (U251 CNS) greater than 100 µM and a TGI (HCT-15 colon) greater than 100 µM. The TGI (HCT-116 colon) was greater than 100 µM, the TGI (SF-295 CNS) was greater than 100 µM and the TGI (A498 renal) was greater than 100 µM. It also gave a TGI (SF-268 CNS) greater than 100 µM, a TGI (NCI-H522 lung) greater than 100 µM and a TGI (LOX IMVI melanoma) greater than 31.6 µM. The TGI (UACC-62 melanoma) was greater than 100 µM, the TGI (SK-MEL-5 melanoma) was greater than 100 µM and the TGI (NCI/ADR-RES ovarian) was greater than 100 µM. It also gave a TGI (MCF7 breast) greater than 100 µM, a TGI (CCRF-CEM leukemia) greater than 100 µM and a TGI (HCC-2998 colon) greater than 100 µM. For the same compound, the TGI (SW-620 colon) was greater than 100 µM, the TGI (HT29 colon) was greater than 100 µM and the TGI (SNB-19 CNS) was greater than 100 µM. For the same compound, the TGI (OVCAR-5 ovarian) was greater than 100 µM, the TGI (DMS 273 small cell lung) was greater than 100 µM and the TGI (COLO 205 colon) was greater than 100 µM. It also gave a TGI (HL-60(TB) leukemia) greater than 100 µM, a TGI (KM20L2 colon) greater than 100 µM and a TGI (NCI-H23 lung) greater than 100 µM. For the same compound, the TGI (NCI-H226 lung) was greater than 100 µM, the TGI (SNB-75 CNS) was greater than 100 µM and the TGI (A549 NSCLC) was greater than 100 µM. For the same compound, the TGI (P388 leukemia) was greater than 100 µM, the TGI (OVCAR-3 ovarian) was greater than 100 µM and the TGI (SK-MEL-28 melanoma) was greater than 100 µM. For the same compound, the TGI (UO-31 renal) was greater than 100 µM, the TGI (SF-539 CNS) was greater than 100 µM and the TGI (SK-MEL-2 melanoma) was greater than 100 µM. The TGI (NCI-H460 lung) was greater than 100 µM, the TGI (SNB-78 CNS) was greater than 100 µM and the TGI (DMS 114 small cell lung) was greater than 100 µM. The TGI (RXF 393 renal) was greater than 100 µM, the TGI (DLD-1 colon) was greater than 100 µM and the TGI (SN12K1 renal) was greater than 100 µM. For the same compound, the TGI (OVCAR-4 ovarian) was greater than 100 µM, the TGI (HOP-92 NSCLC) was greater than 100 µM and the TGI (OVCAR-8 ovarian) was greater than 100 µM. For the same compound, the TGI (SK-OV-3 ovarian) was greater than 100 µM, the TGI (HOP-18 NSCLC) was greater than 100 µM and the TGI (EKVX NSCLC) was greater than 100 µM. It also gave a TGI (K-562 leukemia) greater than 100 µM, a TGI (M19-MEL melanoma) greater than 100 µM and a TGI (IGROV1 ovarian) greater than 100 µM.
`O=C1CSC(Cc2nc3ccccc3[nH]2)=N1` gave a TGI (UACC-257 melanoma) greater than 90.7 µM, a TGI (MOLT-4 leukemia) greater than 100 µM and a TGI (KM12 colon) greater than 64.1 µM. The TGI (MALME-3M melanoma) was 18.4 µM, the TGI (HOP-62 NSCLC) was 44.1 µM and the TGI (XF 498 CNS) was 39.9 µM. It also gave a TGI (SN12C renal) of 44.8 µM, a TGI (U251 CNS) of 49 µM and a TGI (HCT-15 colon) of 37.7 µM. For the same compound, the TGI (HCT-116 colon) was 27.6 µM, the TGI (SF-295 CNS) was 63.3 µM and the TGI (786-0 renal) was 32.6 µM. The TGI (A498 renal) was 10.4 µM, the TGI (RPMI-8226 leukemia) was greater than 100 µM and the TGI (SR leukemia) was 25.6 µM. It also gave a TGI (SF-268 CNS) greater than 31.6 µM, a TGI (LXFL 529 NSCLC) greater than 53.8 µM and a TGI (NCI-H522 lung) of 40.4 µM. It also gave a TGI (LOX IMVI melanoma) of 37.3 µM, a TGI (UACC-62 melanoma) of 37.7 µM and a TGI (SK-MEL-5 melanoma) of 26.6 µM. It also gave a TGI (CCRF-CEM leukemia) greater than 94 µM, a TGI (HCC-2998 colon) of 36.3 µM and a TGI (SW-620 colon) greater than 100 µM. It also gave a TGI (HT29 colon) greater than 100 µM, a TGI (SNB-19 CNS) of 80.8 µM and a TGI (OVCAR-5 ovarian) of 57.5 µM. The TGI (DMS 273 small cell lung) was 35.4 µM, the TGI (COLO 205 colon) was 50 µM and the TGI (HL-60(TB) leukemia) was 97.5 µM. The TGI (KM20L2 colon) was 33.3 µM, the TGI (NCI-H23 lung) was 43.8 µM and the TGI (TK-10 renal) was 48.1 µM. It also gave a TGI (NCI-H226 lung) of 28.3 µM, a TGI (SNB-75 CNS) of 27.4 µM and a TGI (A549 NSCLC) of 79.5 µM. It also gave a TGI (CAKI-1 renal) of 31.4 µM, a TGI (OVCAR-3 ovarian) of 31.6 µM and a TGI (SK-MEL-28 melanoma) greater than 76.1 µM. It also gave a TGI (UO-31 renal) of 35 µM, a TGI (SF-539 CNS) of 43.1 µM and a TGI (SK-MEL-2 melanoma) of 38.4 µM. For the same compound, the TGI (SNB-78 CNS) was greater than 100 µM, the TGI (DMS 114 small cell lung) was greater than 59.2 µM and the TGI (RXF 393 renal) was 33.1 µM. For the same compound, the TGI (DLD-1 colon) was 49 µM, the TGI (OVCAR-4 ovarian) was 41.6 µM and the TGI (HOP-92 NSCLC) was 57.8 µM. The TGI (OVCAR-8 ovarian) was 74.9 µM, the TGI (M14 melanoma) was 33.4 µM and the TGI (SK-OV-3 ovarian) was 51.3 µM. For the same compound, the TGI (ACHN renal) was 9.79 µM, the TGI (HOP-18 NSCLC) was 65.6 µM and the TGI (EKVX NSCLC) was 75.6 µM. The TGI (K-562 leukemia) was greater than 100 µM, the TGI (M19-MEL melanoma) was greater than 59 µM and the TGI (IGROV1 ovarian) was greater than 58.7 µM.
